Assay results taken from BindingDB's records for doi:10.1016/j.bioorg.2016.07.010 (Universiti Teknologi Mara (Uitm), 2016).

Target: Thymidine phosphorylase (Escherichia coli O45:K1 (strain S88 / ExPEC), UniProt B7MNI9)
Test: Thymidine Phosphorylase Assay
Details: pH 7.4; 25 °C
Method: The Thymidine phosphorylase/PD-ECGF (E. coli) activity was determined by measuring the absorbance at 290 nm spectrophotometrically. In brief, total reaction mixture of 200 uL contained 145 uL of potassium phosphate buffer (pH 7.4), 30 uL of enzyme (E. coli) at concentration 0.05 and 0.002 U, respectively, were incubated with 5 uL of test materials for 10 min at 25 °C in microplate reader. After incubation, preread at 290 nm was taken to deduce the absorbance of substrate particles. Substrate (20 uL, 1.5 mM), was dissolved in potassium phosphate buffer, was immediately added to plate and continuously read after 10, 20, and 30 min in microplate reader (spectra max, molecular devices, CA, USA). All assays were performed in triplicate.

Chain of Thymidine phosphorylase (B7MNI9 whole entry): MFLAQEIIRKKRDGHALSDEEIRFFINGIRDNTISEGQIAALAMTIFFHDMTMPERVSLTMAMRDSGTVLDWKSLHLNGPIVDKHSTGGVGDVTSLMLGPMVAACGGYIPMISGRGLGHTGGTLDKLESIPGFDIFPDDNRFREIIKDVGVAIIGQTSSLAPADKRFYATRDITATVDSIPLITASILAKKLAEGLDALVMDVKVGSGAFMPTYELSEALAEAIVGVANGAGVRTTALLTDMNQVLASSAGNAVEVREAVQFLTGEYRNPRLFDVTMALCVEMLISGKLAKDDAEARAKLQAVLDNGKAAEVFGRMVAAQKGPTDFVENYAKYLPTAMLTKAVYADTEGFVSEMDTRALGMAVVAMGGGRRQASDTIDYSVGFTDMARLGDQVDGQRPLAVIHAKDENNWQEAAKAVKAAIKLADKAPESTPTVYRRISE

| SMILES | IC50 [µM] |
| --- | --- |
| Oc1cc(O)c(/C=N/Nc2cnc3ccccc3n2)c(O)c1 [(E)-5-((2-(quinoxalin-2-yl)hydrazono)methyl)benzene-2,4,6-triol (19)] | 9.1 |
| Clc1cccc(/C=N/Nc2cnc3ccccc3n2)c1 [(E)-2-(2-(3-chlorobenzylidene)hydrazinyl)quinoxaline (5)] | 93.5 |
| C(=N\Nc1cnc2ccccc2n1)/c1c[nH]c2ccccc12 [(E)-2-(2-((1H-indol-3-yl)methylene)hydrazinyl)quinoxaline (27)] | 84.3 |
| Fc1ccc(/C=N/Nc2cnc3ccccc3n2)cc1 [(E)-2-(2-(4-fluorobenzylidene)hydrazinyl)quinoxaline (3)] | 58.1 |
| Fc1cccc(/C=N/Nc2cnc3ccccc3n2)c1 [(E)-2-(2-(3-fluorobenzylidene)hydrazinyl)quinoxaline (2)] | 66.1 |
| O=c1[nH]c(=O)c2cc[nH]c2[nH]1 [1,7-Dihydro-pyrrolo[2,3-d]pyrimidine-2,4-dione] | 38.7 |
| Oc1cccc(/C=N/Nc2cnc3ccccc3n2)c1O [(E)-3-((2-(quinoxalin-2-yl)hydrazono)methyl)benzene-1,2-diol (14)] | 15.4 |
| COc1ccc(/C=N/Nc2cnc3ccccc3n2)cc1O [(E)-2-methoxy-5-((2-(quinoxalin-2-yl)hydrazono)methyl)phenol (21)] | 46.9 |
| Oc1cccc(/C=N/Nc2cnc3ccccc3n2)c1 [(E)-3-((2-(quinoxalin-2-yl)hydrazono)methyl)phenol (12)] | 63.2 |
| COc1ccc(O)c(/C=N/Nc2cnc3ccccc3n2)c1 [(E)-4-methoxy-2-((2-(quinoxalin-2-yl)hydrazono)methyl)phenol (24)] | 36.3 |
| Oc1ccc(/C=N/Nc2cnc3ccccc3n2)cc1 [(E)-4-((2-(quinoxalin-2-yl)hydrazono)methyl)phenol (13)] | 48.6 |
| Fc1ccccc1/C=N/Nc1cnc2ccccc2n1 [(E)-2-(2-(2-fluorobenzylidene)hydrazinyl)quinoxaline (1)] | 33.6 |
| Oc1ccccc1/C=N/Nc1cnc2ccccc2n1 [(E)-2-((2-(quinoxalin-2-yl)hydrazono)methyl)phenol (28)] | 37.2 |
| Oc1ccc(/C=N/Nc2cnc3ccccc3n2)cc1O [(E)-4-((2-(quinoxalin-2-yl)hydrazono)methyl)benzene-1,2-diol (17)] | 8.6 |
| Oc1ccc(O)c(/C=N/Nc2cnc3ccccc3n2)c1 [(E)-2-((2-(quinoxalin-2-yl)hydrazono)methyl)benzene-1,4-diol (16)] | 35.5 |
| Oc1cc(O)c(/C=N/Nc2cnc3ccccc3n2)cc1O [(E)-5-((2-(quinoxalin-2-yl)hydrazono)methyl)benzene-1,2,4-triol (18)] | 3.2 |
| Clc1ccccc1/C=N/Nc1cnc2ccccc2n1 [(E)-2-(2-(2-chlorobenzylidene)hydrazinyl)quinoxaline (4)] | 37.6 |
| Oc1ccc(/C=N/Nc2cnc3ccccc3n2)c(O)c1 [(E)-4-((2-(quinoxalin-2-yl)hydrazono)methyl)benzene-1,3-diol (15)] | 33.4 |
| COc1ccc(/C=N/Nc2cnc3ccccc3n2)c(O)c1 [(E)-5-methoxy-2-((2-(quinoxalin-2-yl)hydrazono)methyl)phenol (20)] | 34.4 |
